Where two headings read alike, the source gives them in different places.
Assays:
Format in all cases: cell-based
168 GPCRs [1] = target: T1, 168 GPCRs (Homo sapiens, UniProt Q969F8); conditions: KISS1R
T1 construct: host or cells: PathHunter cell lines
Experimental: (§1) Studies were performed at Eurofins DiscoverX Corporation (Fremont, CA) using the GPCRmax assay according to the manufacturer’s protocols. […] Activity greater than 30% typically indicates agonist activity and inhibition greater than 50% indicates antagonist activity. This assay uses enzyme fragment complementation with […] as the functional reporter. When a GPCR is activated, […] is recruited and the reporter is detectable. GPCRmax offers a high-throughput screen of 168 GPCRs for agonist or antagonist activity. Briefly, PathHunter cell lines were propagated, seeded into 384-well microplates and incubated at 37°C. […] Microplates were read following signal generation with a PerkinElmer Envision™ instrument for chemiluminescent signal detection. Compound activity was analyzed using CBIS data analysis suite (ChemInnovation, CA) to determine raw values (RLU). For agonist mode assay, percentage activity was calculated using the following formula: % Activity =100% × (mean RLU of test sample - mean RLU of vehicle control) / (mean MAX control ligand - mean RLU of vehicle control). For antagonist mode assay, percentage inhibition was calculated using the following formula: % Inhibition =100% × (1 - (mean RLU of test sample - mean RLU of vehicle control) / (mean RLU of EC80 control - mean RLU of vehicle control)).

168 GPCRs [2] = target: T2, 168 GPCRs (Homo sapiens, UniProt P46663)
T2 construct: host or cells: PathHunter cell lines
T2 sequence (P46663 1-353): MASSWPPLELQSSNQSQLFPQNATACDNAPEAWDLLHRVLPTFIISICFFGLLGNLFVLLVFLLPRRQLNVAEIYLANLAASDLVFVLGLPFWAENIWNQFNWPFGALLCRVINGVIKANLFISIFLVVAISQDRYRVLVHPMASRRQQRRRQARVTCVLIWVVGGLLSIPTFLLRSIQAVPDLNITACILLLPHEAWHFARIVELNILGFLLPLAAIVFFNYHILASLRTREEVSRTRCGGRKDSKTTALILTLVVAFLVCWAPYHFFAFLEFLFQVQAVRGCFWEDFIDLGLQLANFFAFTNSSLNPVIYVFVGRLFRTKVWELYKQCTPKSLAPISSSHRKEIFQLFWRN
Experimental: as §1

168 GPCRs [3] = target: T3, 168 GPCRs (Homo sapiens, UniProt P41587); conditions: VIPR2
T3 construct: host or cells: PathHunter cell lines
T3 sequence (P41587 24-438): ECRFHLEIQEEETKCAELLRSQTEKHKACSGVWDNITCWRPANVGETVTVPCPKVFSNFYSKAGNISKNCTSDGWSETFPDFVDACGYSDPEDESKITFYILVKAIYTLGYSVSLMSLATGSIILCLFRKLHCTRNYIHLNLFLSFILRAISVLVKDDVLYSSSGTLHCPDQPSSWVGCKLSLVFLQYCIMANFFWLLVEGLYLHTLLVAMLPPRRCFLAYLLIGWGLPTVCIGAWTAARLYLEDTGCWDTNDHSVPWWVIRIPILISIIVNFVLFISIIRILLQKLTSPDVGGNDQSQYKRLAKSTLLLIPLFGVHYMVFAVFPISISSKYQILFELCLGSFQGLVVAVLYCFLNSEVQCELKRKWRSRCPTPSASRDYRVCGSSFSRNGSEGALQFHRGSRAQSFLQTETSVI
Experimental: as §1

168 GPCRs [4] = target: T4, 168 GPCRs (Homo sapiens, UniProt P41146); conditions: OPRL1
T4 construct: host or cells: PathHunter cell lines
T4 sequence (P41146 whole entry): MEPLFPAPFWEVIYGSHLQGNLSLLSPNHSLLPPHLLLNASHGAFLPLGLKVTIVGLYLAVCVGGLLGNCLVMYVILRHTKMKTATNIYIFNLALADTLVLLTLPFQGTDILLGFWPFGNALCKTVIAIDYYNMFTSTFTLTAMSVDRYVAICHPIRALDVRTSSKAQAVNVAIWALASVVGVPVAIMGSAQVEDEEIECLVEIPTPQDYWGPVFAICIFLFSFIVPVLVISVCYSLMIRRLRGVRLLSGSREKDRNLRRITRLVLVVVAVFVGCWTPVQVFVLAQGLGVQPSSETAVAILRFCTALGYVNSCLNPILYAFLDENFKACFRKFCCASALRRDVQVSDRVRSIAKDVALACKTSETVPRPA
Experimental: as §1

168 GPCRs [5] = target: T5, 168 GPCRs (Homo sapiens, UniProt P48146)
T5 construct: host or cells: PathHunter cell lines
T5 sequence (P48146 whole entry): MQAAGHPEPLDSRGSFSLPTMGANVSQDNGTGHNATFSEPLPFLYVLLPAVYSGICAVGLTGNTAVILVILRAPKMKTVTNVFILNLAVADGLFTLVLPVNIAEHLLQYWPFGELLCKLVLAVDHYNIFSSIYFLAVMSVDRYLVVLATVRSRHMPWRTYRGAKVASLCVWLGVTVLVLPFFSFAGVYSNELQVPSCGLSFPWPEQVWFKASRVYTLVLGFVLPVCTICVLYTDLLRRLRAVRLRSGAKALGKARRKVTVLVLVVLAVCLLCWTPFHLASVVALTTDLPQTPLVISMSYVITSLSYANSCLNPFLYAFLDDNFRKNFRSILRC
Experimental: as §1

168 GPCRs [6] = target: T6, 168 GPCRs (Homo sapiens, UniProt Q16581)
T6 construct: host or cells: PathHunter cell lines
T6 sequence (Q16581 1-482): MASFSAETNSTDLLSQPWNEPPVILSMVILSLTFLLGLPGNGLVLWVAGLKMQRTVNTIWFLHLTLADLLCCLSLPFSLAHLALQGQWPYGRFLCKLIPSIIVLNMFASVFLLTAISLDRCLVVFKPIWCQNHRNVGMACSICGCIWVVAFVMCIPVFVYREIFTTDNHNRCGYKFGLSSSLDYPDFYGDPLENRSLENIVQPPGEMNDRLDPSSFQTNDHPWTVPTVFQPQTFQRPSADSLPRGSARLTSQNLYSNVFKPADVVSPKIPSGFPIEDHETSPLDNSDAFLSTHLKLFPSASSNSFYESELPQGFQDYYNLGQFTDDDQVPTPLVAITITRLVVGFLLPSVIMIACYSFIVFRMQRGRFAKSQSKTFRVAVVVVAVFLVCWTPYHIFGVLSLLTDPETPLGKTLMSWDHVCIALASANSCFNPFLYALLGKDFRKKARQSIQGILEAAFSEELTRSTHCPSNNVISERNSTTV
Experimental: as §1

168 GPCRs [7] = target: T7, 168 GPCRs (Homo sapiens, UniProt P32247)
T7 construct: host or cells: PathHunter cell lines
T7 sequence (P32247 1-399): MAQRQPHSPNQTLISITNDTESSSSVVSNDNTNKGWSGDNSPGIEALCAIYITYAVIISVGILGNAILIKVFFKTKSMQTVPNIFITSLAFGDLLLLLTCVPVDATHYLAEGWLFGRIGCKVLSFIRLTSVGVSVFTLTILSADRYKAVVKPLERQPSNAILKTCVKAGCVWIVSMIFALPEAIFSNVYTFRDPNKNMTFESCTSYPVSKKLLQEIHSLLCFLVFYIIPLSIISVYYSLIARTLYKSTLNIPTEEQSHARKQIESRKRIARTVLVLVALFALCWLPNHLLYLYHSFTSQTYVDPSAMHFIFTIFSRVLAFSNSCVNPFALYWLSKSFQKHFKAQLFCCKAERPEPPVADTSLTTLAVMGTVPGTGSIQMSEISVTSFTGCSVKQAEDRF
Experimental: as §1

168 GPCRs [8] = target: T8, 168 GPCRs (Homo sapiens, UniProt P50391); conditions: PPYR1
T8 construct: host or cells: PathHunter cell lines
T8 sequence (P50391 whole entry): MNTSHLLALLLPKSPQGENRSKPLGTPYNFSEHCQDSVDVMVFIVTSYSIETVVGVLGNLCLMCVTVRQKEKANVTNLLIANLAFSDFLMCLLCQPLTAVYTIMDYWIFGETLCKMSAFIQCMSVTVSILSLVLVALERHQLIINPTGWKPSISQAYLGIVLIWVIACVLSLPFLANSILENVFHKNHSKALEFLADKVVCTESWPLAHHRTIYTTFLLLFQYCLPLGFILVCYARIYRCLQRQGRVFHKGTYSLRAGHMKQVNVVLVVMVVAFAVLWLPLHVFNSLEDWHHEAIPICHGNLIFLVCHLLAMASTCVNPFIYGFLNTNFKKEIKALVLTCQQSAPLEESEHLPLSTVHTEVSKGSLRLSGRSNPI
Experimental: as §1

T1 sequence (Q969F8 whole entry): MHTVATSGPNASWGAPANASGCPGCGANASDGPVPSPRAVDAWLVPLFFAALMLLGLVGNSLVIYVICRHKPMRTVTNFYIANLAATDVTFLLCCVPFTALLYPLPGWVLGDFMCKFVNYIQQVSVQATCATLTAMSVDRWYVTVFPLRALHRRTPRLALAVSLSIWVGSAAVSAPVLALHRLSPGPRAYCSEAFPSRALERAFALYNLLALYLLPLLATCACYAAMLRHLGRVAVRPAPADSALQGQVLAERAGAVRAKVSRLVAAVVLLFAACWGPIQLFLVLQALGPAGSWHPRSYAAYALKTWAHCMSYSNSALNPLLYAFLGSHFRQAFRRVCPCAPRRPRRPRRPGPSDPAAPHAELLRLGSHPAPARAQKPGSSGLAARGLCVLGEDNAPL

## CNC(C)C(=O)c1ccc2c(c1)OCO2 (stereo not shown) [methylone]
168 GPCRs [1]; 1 uM
  % Agonist Activity: -5.5%
  % Antagonist Activity: 28.7%
168 GPCRs [1]; 10 uM
  % Agonist Activity: -3.7%
  % Antagonist Activity: 14.5%
168 GPCRs [2]; BDKRB1, 1 uM
  % Agonist Activity: -1.7%
  % Antagonist Activity: 2.8%
168 GPCRs [2]; BDKRB1, 10 uM
  % Agonist Activity: -2.5%
  % Antagonist Activity: 12.1%
168 GPCRs [3]; Conc 1 uM
  % Agonist Activity: -0.4%
  % Antagonist Activity: -1.5%
168 GPCRs [3]; Conc 10 uM
  % Agonist Activity: -0.3%
  % Antagonist Activity: -2.6%
168 GPCRs [4]; Conc 1 uM
  % Agonist Activity: -1.6%
  % Antagonist Activity: 17.1%
168 GPCRs [4]; Conc 10 uM
  % Agonist Activity: -2.3%
  % Antagonist Activity: 13.2%
168 GPCRs [5]; NPBWR2, 1 uM
  % Agonist Activity: -0.3%
  % Antagonist Activity: -14.1%
168 GPCRs [5]; NPBWR2, Conc 10 uM
  % Agonist Activity: 1.3%
  % Antagonist Activity: -14%
168 GPCRs [6]; C3AR1, 1 uM
  % Agonist Activity: -0.1%
  % Antagonist Activity: 2.5%
168 GPCRs [6]; C3AR1, 10 uM
  % Agonist Activity: 0%
  % Antagonist Activity: 0.3%
168 GPCRs [7]; BRS3, 1 uM
  % Agonist Activity: 4.5%
  % Antagonist Activity: 18.3%
168 GPCRs [7]; BRS3, 10 uM
  % Agonist Activity: -4.6%
  % Antagonist Activity: 10.1%
168 GPCRs [8]; Conc 1 uM
  % Agonist Activity: -1.7%
  % Antagonist Activity: 9.5%
168 GPCRs [8]; Conc 10 uM
  % Agonist Activity: -1.2%
  % Antagonist Activity: 6.5%

## CNC(C)Cc1ccc2c(c1)OCO2 (stereo not shown) [MDMA, 3,4-Methylenedioxy methamphetamine, reference compound]
168 GPCRs [1]; 1 uM
  % Agonist Activity: -4.8%
  % Antagonist Activity: -13.9%
168 GPCRs [1]; 10 uM
  % Agonist Activity: -4.3%
  % Antagonist Activity: 1.8%
168 GPCRs [2]; BDKRB1, 1 uM
  % Agonist Activity: -1.2%
  % Antagonist Activity: -17.1%
168 GPCRs [2]; BDKRB1, 10 uM
  % Agonist Activity: -0.2%
  % Antagonist Activity: -12.7%
168 GPCRs [3]; Conc 1 uM
  % Agonist Activity: -1.6%
  % Antagonist Activity: -1.1%
168 GPCRs [3]; Conc 10 uM
  % Agonist Activity: -0.7%
  % Antagonist Activity: 3.1%
168 GPCRs [4]; Conc 1 uM
  % Agonist Activity: 0.5%
  % Antagonist Activity: -6.7%
168 GPCRs [4]; Conc 10 uM
  % Agonist Activity: -0.4%
  % Antagonist Activity: -3.2%
168 GPCRs [5]; NPBWR2, 1 uM
  % Agonist Activity: -2.6%
  % Antagonist Activity: -2.1%
168 GPCRs [5]; NPBWR2, Conc 10 uM
  % Agonist Activity: -2.3%
  % Antagonist Activity: 2.4%
168 GPCRs [6]; C3AR1, 1 uM
  % Agonist Activity: 0.2%
  % Antagonist Activity: 12.9%
168 GPCRs [6]; C3AR1, 10 uM
  % Agonist Activity: 0.2%
  % Antagonist Activity: 9.8%
168 GPCRs [7]; BRS3, 1 uM
  % Agonist Activity: 2.6%
  % Antagonist Activity: 7.9%
168 GPCRs [7]; BRS3, 10 uM
  % Agonist Activity: -3%
  % Antagonist Activity: 3.8%
168 GPCRs [8]; Conc 1 uM
  % Agonist Activity: 0.3%
  % Antagonist Activity: 5.9%
168 GPCRs [8]; Conc 10 uM
  % Agonist Activity: 0.9%
  % Antagonist Activity: 6.9%

Source: article PMC10882719 (Frontiers in Neuroscience, 2024)
